How the values were obtained:
[1] = test system: Female SD rats; experiment: Inhibitory effect of compound on sulprostone-induced bladder contraction; assay type: in vivo, rat; conditions: urethane-anesthetized female SD rats, sulprostone 0.3 mg/kg s.c., test agent 1.0 mg/kg intravenously; for Bladder Contraction Inhibition Rate (%) 15 minutes: 15 minutes after administration; for Bladder Contraction Inhibition Rate (%) 60 minutes: 60 minutes after administration
Description: Inhibitory Effect of Compound on Sulprostone-Induced Bladder Contraction
Female SD rats were used. Under urethane anesthesia (1.25 g/kg, administered subcutaneously), a tracheal cannula (Size 8, HIBIKI) and a femoral vein cannula for administration (23G needle-equipped PESO) were inserted thereinto. The bladder cannula (PE50) was inserted from the bladder apex. The bladder cannula was connected to a three-way stopcock, and then one port was connected to a pressure transducer and the other port was connected to a syringe filled with saline. Saline was injected into the bladder at an injection rate of 3.6 mL/hour and the bladder contraction pressure was recorded at the time of injection with a recorder (RECTI-HORITZ-8K, NEC Corporation). After 10 minutes from stabilization of the bladder contraction pressure during urination, sulprostone was administered subcutaneously (0.3 mg/kg). Subsequently, once the bladder contraction pressure became constant, a test agent was administered intravenously (1.0 mg/kg). An average bladder contraction pressure during the 10 minute period before administration of sulprostone was used as a baseline (0%). Further, an average bladder contraction pressure during the 10 minute period directly before administration of the test agent was used as a maximum bladder contraction pressure (100%). The average bladder contraction pressures were measured for a 5 minute period before and after 15 minutes and 60 minutes from administration of the test agent. The ratio of this measured value to the maximum bladder contraction pressure was calculated by the following equation and regarded as an average bladder contraction rate after administration of the test agent: (Average Bladder Contraction Rate after Administration of Test Agent (%))=[(Average Bladder Contraction Pressure after Administration of Test Agent)/(Maximum Bladder Contraction Pressure)]×100 EQUATION 1
In addition, the difference between the maximum bladder contraction rate (100%) and the average bladder contraction rate (%) after administration of the test agent was calculated by the following equation and regarded as a bladder contraction inhibition rate of the test agent: (Bladder Contraction Inhibition Rate)=100%−(Average Bladder Contraction Rate after Administration of Test Agent (%)) EQUATION 2

[2] = target: T1, rat EP1 receptor (Rattus norvegicus, UniProt P70597); experiment: Test for confirmation of EP1 receptor antagonism: inhibition of prostaglandin E2-induced increase in intracellular calcium concentration in rat EP1 receptor-expressing COS-1 cells; assay type: cell-based; conditions: prostaglandin E2 10 nM, intracellular calcium fluorescence signal
T1 construct: expressed in transfected cells; host or cells: COS-1 cells, transient transfection with Lipofectamine 2000
T1 sequence (P70597 1-405): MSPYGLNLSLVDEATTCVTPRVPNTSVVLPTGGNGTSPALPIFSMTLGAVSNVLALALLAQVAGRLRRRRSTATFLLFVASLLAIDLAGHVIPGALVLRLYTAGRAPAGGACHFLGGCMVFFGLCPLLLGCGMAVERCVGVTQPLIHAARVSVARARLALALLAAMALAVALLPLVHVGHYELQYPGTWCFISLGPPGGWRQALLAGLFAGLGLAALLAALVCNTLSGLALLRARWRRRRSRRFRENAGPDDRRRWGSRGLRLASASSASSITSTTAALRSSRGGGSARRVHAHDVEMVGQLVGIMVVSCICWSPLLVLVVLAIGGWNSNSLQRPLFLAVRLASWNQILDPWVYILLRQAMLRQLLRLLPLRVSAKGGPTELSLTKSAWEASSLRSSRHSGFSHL
Method: Test for Confirmation of EP1 Receptor Antagonism
(1) Preparation of Rat EP1 Expression Vector
Using Rat Kidney BD Marathon-Ready cDNA (Nippon Becton Dickinson Company, Ltd.) as a template, and using a forward primer shown in (SEQ ID NO:1) and a reverse primer shown in (SEQ ID NO:2), a first run of PCR was carried out using KOD-Plus-Ver 2.0 (Toyobo Co., Ltd.). Further, using this amplification product as a template, and using a forward primer shown in (SEQ ID NO:3) and a reverse primer shown in (SEQ ID NO:4), a second run of PCR was carried out in the same manner. The amplification product obtained by the second run of PCR was incorporated into a vector (pcDNA3.1 D/V5-His-TOPO (registered trademark), Invitrogen Japan K. K.). By a conventional method, the vector containing this amplification product was introduced into E. coli (One Shot TOP10 Competent Cells, Invitrogen Corporation) and transformed. This transformed E. coli was cultured in an LB agar medium for one day. After the culture, colonies were selected and cultured in an LB liquid medium containing 50 μg/mL of ampicillin. After the culture, the vector was purified using a QIAprep Spin Miniprep Kit (Qiagen K. K.). The base sequence of the insertion site of this vector (SEQ ID NO:5) was compared with the rat EP1 base sequence (Ptger1) registered as Accession No. NM_013100 in a publicly-known database (NCBI), and as a result, the base sequences completely matched except for a single base. Further, the amino acid sequence translated by the base sequence completely matched the amino acid sequence of the rat EP1 receptor registered as an NCBI Accession No. NP_037232. Therefore, it was confirmed that the cloned gene sequence was a base sequence of the rat EP1 receptor and the obtained amino acid sequence was that of the rat EP1 receptor. The pcDNA3.1 D/V5-His-TOPO (registered trademark) into which the nucleic acid shown in (SEQ ID NO:5) had been inserted was taken as a rat EP1-expressing vector.
(2) Preparation of Rat EP1 Receptor-Expressing Cells
COS-1 cells (Dainippon Sumitomo Pharma Co., Ltd.) were cultured until they reached confluence in an incubator at 37° C. under a 5% CO2 gas condition, using a D-MEM liquid medium (high glucose and L-glutamine contained, Invitrogen Corporation) to which a penicillin-streptomycin solution (Invitrogen Corporation, final concentration: 100 U/mL as benzylpenicillin; 100 μg/mL as streptomycin) as an antibiotic, MEM nonessential amino acids (Invitrogen Corporation, final concentration: 0.1 mM), and fetal calf serum (Sanko Junyaku Co., Ltd., final concentration: 10%) were added.
(2-2) COS-1 Cell Subculture
The cells that had reached confluence were stripped with 0.05% trypsin/0.53 mM EDTA•4Na (Invitrogen Japan K. K.) and resuspended in the liquid medium. The resuspended cells were diluted and cultured in the liquid medium at a spread ratio from 1:4 to 1:8.
(2-3) Preparation of Cells for Introduction of Rat EP1-Expressing Vector
The cells that had reached confluence were stripped with 0.05% trypsin/0.53 mM EDTA•4Na, and resuspended in a D-MEM liquid medium (high glucose and L-glutamine contained, Invitrogen Corporation) to which MEM nonessential amino acids (final concentration: 0.1 mM) and fetal calf serum (final concentration: 10%) were added. In each well of a Poly D-lysine-coated 96-well microplate (BD BioCoat (registered trademark), Nippon Becton Dickinson Company, Ltd.), this resuspended cell suspension culture was prepared to be 5×10^4 cells/well in 100 μL of the liquid medium, and 100 μL of the cell suspension was dispensed and seeded in each well. After seeding, the cells were cultured in an incubator at 37° C. under a 5% CO2 gas condition. Once the cells for introduction of a rat EP1-expressing vector were adhered (about 2 hours after seeding), introduction of the rat EP1-expressing vector was carried out in the following order.
(2-4) Introduction of Rat EP1-Expressing Vector […]

With `CCS(=O)(=O)NC(=O)c1cccc(Cn2c(-c3ccccc3)cc3cc(OC)c(Cl)cc32)n1` [Example 1-6, 6-(6-chloro-5-methoxy-2-phenylindol-1-ylmethyl)-N-(ethanesulfonyl)pyridine-2-carboxamide] the “Bladder Contraction Inhibition Rate (%) 15 minutes” value [1] was 70.0%, the “Bladder Contraction Inhibition Rate (%) 60 minutes” value [1] was 35.8% and the IC50 [2] was 19 nM.

For `COc1ccc2c(c1)cc(C1(C)CC1)n2Cc1cccc(-c2nnn[nH]2)n1` [Example 5-5, 5-methoxy-2-(1-methylcyclopropyl)-1-[6-(1H-1,2,3,4-tetrazol-5-yl)pyridin-2-ylmethyl]-1H-indole], the “Bladder Contraction Inhibition Rate (%) 15 minutes” value [1] was 85.3%, the “Bladder Contraction Inhibition Rate (%) 60 minutes” value [1] was 55.2% and the IC50 [2] was 24 nM.

`COc1ccc2c(c1)cc(-c1ccccc1)n2Cc1cccc(-c2nnn[nH]2)n1` [Example 2-1, 5-Methoxy-2-phenyl-1-[6-(1H-1,2,3,4-tetrazol-5-yl)pyridin-2-ylmethyl]-1H-indole] was tested, and the “Bladder Contraction Inhibition Rate (%) 15 minutes” value [1] was 73.2%, the “Bladder Contraction Inhibition Rate (%) 60 minutes” value [1] was 78.1% and the IC50 [2] was 34 nM.

In the case of `COc1ccc2c(c1)cc(-c1ccccc1)n2Cc1cccc(C(=O)NS(C)(=O)=O)n1` [Example 1-1, N-(Methanesulfonyl)-6-(5-methoxy-2-phenylindol-1-ylmethyl)pyridine-2-carboxamide], the “Bladder Contraction Inhibition Rate (%) 15 minutes” value [1] is reported as 67.3%, the “Bladder Contraction Inhibition Rate (%) 60 minutes” value [1] is reported as 75.5% and the IC50 [2] is reported as 47 nM.
